Reference: PubChem BioAssay AID1259407 (Chemical Carcinogenesis Research Information System (CCRIS), 2018)
Active and inactive are the calls of the source. No rule for the calls is given here.

Tested on: CCRIS mutagenicity, Ames/micronucleus/aberration tests
Test: CCRIS mutagenicity studies
[1] = Test System: AMES SALMONELLA TYPHIMURIUM, Strain/Indicator: TA102, Metabolic Activation: NONE, Method: STANDARD PLATE
[2] = Test System: AMES SALMONELLA TYPHIMURIUM, Strain/Indicator: TA98, Metabolic Activation: NONE, Method: STANDARD PLATE
[3] = Test System: AMES SALMONELLA TYPHIMURIUM, Strain/Indicator: TA98, Metabolic Activation: RAT, LIVER, S-9, AROCLOR 1254, Method: STANDARD PLATE
[4] = Test System: AMES SALMONELLA TYPHIMURIUM, Strain/Indicator: TA100, Metabolic Activation: NONE, Method: STANDARD PLATE
[5] = Test System: AMES SALMONELLA TYPHIMURIUM, Strain/Indicator: TA100, Metabolic Activation: RAT, LIVER, S-9, AROCLOR 1254, Method: STANDARD PLATE
[6] = Test System: AMES SALMONELLA TYPHIMURIUM, Strain/Indicator: TA102, Metabolic Activation: RAT, LIVER, S-9, AROCLOR 1254, Method: STANDARD PLATE
[7] = Test System: AMES SALMONELLA TYPHIMURIUM, Strain/Indicator: TA1537, Metabolic Activation: NONE, Method: STANDARD PLATE
[8] = Test System: AMES SALMONELLA TYPHIMURIUM, Strain/Indicator: TA1538, Metabolic Activation: NONE, Method: STANDARD PLATE

Structure (SMILES): c1ccc2c(c1)ccc1ccc3sccc3c12
- mutagenic call (Test System: Ames Salmonella typhimurium, Strain/Indicator: TA100, Metabolic Activation: None, Method: Plate incorporation): active; positive
- mutagenic call (Test System: Ames Salmonella typhimurium, Strain/Indicator: TA104, Metabolic Activation: None, Method: Plate incorporation): inactive; negative

Structure (SMILES): COC(=O)CCl
- mutagenic call [1]: inactive; negative
- mutagenic call (Test System: AMES SALMONELLA TYPHIMURIUM, Strain/Indicator: TA2638, Metabolic Activation: NONE, Method: STANDARD PLATE): inactive; negative
- mutagenic call (Test System: E. COLI, Strain/Indicator: WP2 (PKM101), Metabolic Activation: NONE, Method: STANDARD PLATE): inactive; negative
- mutagenic call (Test System: E. COLI, Strain/Indicator: WP2 UVRA (PKM101), Metabolic Activation: NONE, Method: STANDARD PLATE): inactive; negative

Structure (SMILES): Cc1nc2c(c3[nH]c4ccccc4c13)C(=O)C(N1CC1)=CC2=O
- mutagenic call (Test System: AMES SALMONELLA TYPHIMURIUM, Strain/Indicator: TA97, Metabolic Activation: NONE, Method: STANDARD PLATE): active; positive
- mutagenic call (Test System: AMES SALMONELLA TYPHIMURIUM, Strain/Indicator: TA97, Metabolic Activation: RAT, LIVER, S-9, AROCLOR 1254, Method: STANDARD PLATE): active; positive
- mutagenic call [2]: active; positive
- mutagenic call [3]: active; positive
- mutagenic call [4]: active; positive
- mutagenic call [5]: active; positive
- mutagenic call [1]: active; positive
- mutagenic call [6]: active; positive

Structure (SMILES): O=C1OCC(C(Cl)Cl)=C1Cl
- mutagenic call [2]: inactive; negative
- mutagenic call [3]: inactive; negative
- mutagenic call [1]: active; positive
- mutagenic call [6]: inactive; negative

Structure (SMILES): CC(=O)Nc1ccc2[nH]c3ccccc3c2c1
- mutagenic call [2]: inactive; negative
- mutagenic call (Test System: AMES SALMONELLA TYPHIMURIUM, Strain/Indicator: TA98, Metabolic Activation: RAT, LIVER, S-9, PHENOBARBITAL, Method: STANDARD PLATE): active; positive
- mutagenic call [4]: inactive; negative
- mutagenic call (Test System: AMES SALMONELLA TYPHIMURIUM, Strain/Indicator: TA100, Metabolic Activation: RAT, LIVER, S-9, PHENOBARBITAL, Method: STANDARD PLATE): inactive; negative
- mutagenic call [7]: inactive; negative
- mutagenic call (Test System: AMES SALMONELLA TYPHIMURIUM, Strain/Indicator: TA1537, Metabolic Activation: RAT, LIVER, S-9, PHENOBARBITAL, Method: STANDARD PLATE): inactive; negative
- mutagenic call [8]: inactive; negative
- mutagenic call (Test System: AMES SALMONELLA TYPHIMURIUM, Strain/Indicator: TA1538, Metabolic Activation: RAT, LIVER, S-9, PHENOBARBITAL, Method: STANDARD PLATE): active; positive
- mutagenic call (Test System: AMES SALMONELLA TYPHIMURIUM, Strain/Indicator: TA1977, Metabolic Activation: NONE, Method: STANDARD PLATE): inactive; negative
- mutagenic call (Test System: AMES SALMONELLA TYPHIMURIUM, Strain/Indicator: TA1977, Metabolic Activation: RAT, LIVER, S-9, PHENOBARBITAL, Method: STANDARD PLATE): inactive; negative

Structure (SMILES): ClCc1ccc(Br)cc1
- mutagenic call [4]: inactive; negative

Structure (SMILES): Nc1ccc2c(c1)C(=O)c1ccc(N)cc1C2=O
- mutagenic call [2]: inactive; negative
- mutagenic call [3]: active; positive
- mutagenic call [4]: inactive; negative
- mutagenic call [5]: inactive; negative
- mutagenic call (Test System: AMES SALMONELLA TYPHIMURIUM, Strain/Indicator: TA1535, Metabolic Activation: NONE, Method: STANDARD PLATE): inactive; negative
- mutagenic call (Test System: AMES SALMONELLA TYPHIMURIUM, Strain/Indicator: TA1535, Metabolic Activation: RAT, LIVER, S-9, AROCLOR 1254, Method: STANDARD PLATE): inactive; negative
- mutagenic call [7]: inactive; negative
- mutagenic call (Test System: AMES SALMONELLA TYPHIMURIUM, Strain/Indicator: TA1537, Metabolic Activation: RAT, LIVER, S-9, AROCLOR 1254, Method: STANDARD PLATE): active; positive
- mutagenic call [8]: inactive; negative
- mutagenic call (Test System: AMES SALMONELLA TYPHIMURIUM, Strain/Indicator: TA1978, Metabolic Activation: RAT, LIVER, S-9, AROCLOR 1254, Method: STANDARD PLATE): inactive; negative

Structure (SMILES): Nc1cccc(N)n1
- mutagenic call (Test System: AMES SALMONELLA TYPHIMURIUM, Strain/Indicator: TA98, Metabolic Activation: NONE, Method: PREINCUBATION): inactive; negative
- mutagenic call (Test System: AMES SALMONELLA TYPHIMURIUM, Strain/Indicator: TA98, Metabolic Activation: RAT, LIVER, S-9, PCB, Method: PREINCUBATION): active; positive
- mutagenic call (Test System: AMES SALMONELLA TYPHIMURIUM, Strain/Indicator: TA98, Metabolic Activation: RAT, LIVER, S-9, PHENOBARBITAL AND BETA-NAPHTHOFLAVONE, Method: PREINCUBATION): inactive; negative
- mutagenic call (Test System: AMES SALMONELLA TYPHIMURIUM, Strain/Indicator: TA100, Metabolic Activation: NONE, Method: PREINCUBATION): inactive; negative
- mutagenic call (Test System: AMES SALMONELLA TYPHIMURIUM, Strain/Indicator: TA100, Metabolic Activation: RAT, LIVER, S-9, PCB, Method: PREINCUBATION): inactive; negative
- mutagenic call (Test System: AMES SALMONELLA TYPHIMURIUM, Strain/Indicator: TA100, Metabolic Activation: RAT, LIVER, S-9, PHENOBARBITAL AND BETA-NAPHTHOFLAVONE, Method: PREINCUBATION): inactive; negative
- mutagenic call (Test System: AMES SALMONELLA TYPHIMURIUM, Strain/Indicator: TA1535, Metabolic Activation: NONE, Method: PREINCUBATION): inactive; negative
- mutagenic call (Test System: AMES SALMONELLA TYPHIMURIUM, Strain/Indicator: TA1535, Metabolic Activation: RAT, LIVER, S-9, PHENOBARBITAL AND BETA-NAPHTHOFLAVONE, Method: PREINCUBATION): inactive; negative
- mutagenic call (Test System: AMES SALMONELLA TYPHIMURIUM, Strain/Indicator: TA1537, Metabolic Activation: RAT, LIVER, S-9, PHENOBARBITAL AND BETA-NAPHTHOFLAVONE, Method: PREINCUBATION): active; positive
- mutagenic call (Test System: E. COLI, Strain/Indicator: WP2UVRA, Metabolic Activation: NONE, Method: PREINCUBATION): inactive; negative
- mutagenic call (Test System: E. COLI, Strain/Indicator: WP2UVRA, Metabolic Activation: RAT, LIVER, S-9, PHENOBARBITAL AND BETA-NAPHTHOFLAVONE, Method: PREINCUBATION): inactive; negative
